This is an account of results in patent US7803797B2, “Substituted arylcyclopentenes as therapeutic agents” (Allergan, Inc., priority 2008, dated 2010).

Common to all, as to format: in vivo
Assay [1] relates to laser-induced hypertensive monkeys. In words: Intraocular pressure (IOP) reduction in laser-induced hypertensive monkeys.
The test system of another assay is normotensive dogs. In words: Intraocular pressure (IOP) reduction in normotensive dogs. As for the experimental part: Compounds 14a, 14b, 16a, 16b. 22a, 22b, 33a, 33b, 34a, 34b, 35a, 35b, 46a, 46b, 51a, 51 b, 58a, 58b, 69a, 69b, 70a and 70b from above are tested in vivo to measure its ability to reduce intraocular pressure. Compound 14a is tested in normotensive dogs.

For assay [2], the system named is lashes and adjacent hairs of the eyelids. Description: Clinical observation of lashes in glaucoma patients treated in one eye. The note with it: glaucoma patients treated in only one eye. The text has this:
In the course of treating patients having glaucoma, treatment may only be appropriate in one eye. […] The lash appearance on the lids of the treated eyes would have appeared quite attractive if it represented a bilateral phenomenon. As a result of its asymmetric nature, the long lashes on one side could be construed as disturbing from a cosmetic standpoint. A systemic examination was preformed as a result of the asymmetric phenomenon. It soon became apparent that this altered appearance was not an isolated finding. […] Definite differences could be identified to varying degrees in the lashes and adjacent hairs of all patients who were taking the drug on a unilateral basis for longer than 6 months.
The changes in the lashes were apparent on gross inspection in several patients once attention was focused on the issue. In those with light colored hair and lashes, the differences were only seen easily with the aid of the high magnification and lighting capabilities of the slit lamp biomicroscope. In the course of glaucoma follow-up examination, attention is generally immediately focused on the eye itself. As a result of the high power magnification needed only one eye is seen at a time and the eye is seen at a high enough power that the lashes are not in focus. […]

As to `N#C[C@@H]1C[C@@H](O)[C@H](COc2cc(Cl)cc(Cl)c2)[C@H]1CCCc1ccc(C(=O)OCCO)s1` [Compound 58a], the “IOP change from baseline” value in assay [1] is given as “decreases from baseline”. The “intraocular pressure (IOP) change from baseline” value in the assay on normotensive dogs is “decreases from baseline”.

Turning to `O=C(OCCN1CCOCC1)c1ccc(CCC[C@H]2C(=O)CC[C@@H]2COc2cc(Cl)cc(CO)c2)s1` [Compound 46b], the “IOP change from baseline” value in assay [1] is “decreases from baseline”. For the same compound, the “intraocular pressure (IOP) change from baseline” value in the assay on normotensive dogs was “decreases from baseline”.

With `O=C(OCCN1CCOCC1)c1ccc(CCC[C@@H]2[C@@H](COc3cc(Cl)cc(Cl)c3)[C@H](O)C[C@H]2F)s1` [Compound 70b], in assay [1], the “IOP change from baseline” value is recorded as “decreases from baseline”. For the same compound, the “intraocular pressure (IOP) change from baseline” value in the assay on normotensive dogs is “decreases from baseline”.

Consider `CC(=O)OCCc1cc(Cl)cc(OC[C@@H]2[C@@H](C/C=C\CCCC(=O)OCCO)[C@H](Cl)C[C@H]2O)c1` [Compound 16a], for which the “IOP change from baseline” value in assay [1] is given as “decreases from baseline”. Besides, the “intraocular pressure (IOP) change from baseline” value in the assay on normotensive dogs is given as “decreases from baseline”.

Turning to `Cc1cc(C)cc(OC[C@@H]2[C@@H](CCCc3ccc(C(=O)OCCO)s3)[C@H](Cl)C[C@H]2O)c1` [Compound 35a], the “IOP change from baseline” value in assay [1] was “decreases from baseline”. Also, the “intraocular pressure (IOP) change from baseline” value in the assay on normotensive dogs is given as “decreases from baseline”.

With `O=C(OCCN1CCOCC1)c1ccc(CCCC2=CC[C@@H](O)[C@@H]2COc2cc(Cl)cc(Cl)c2)s1` [Compound 69b], in assay [1], the “IOP change from baseline” value is listed as “decreases from baseline”. Besides, the “intraocular pressure (IOP) change from baseline” value in the assay on normotensive dogs is on record as “decreases from baseline”.

On to `O=C(OCCN1CCOCC1)c1ccc(CCC[C@@H]2[C@@H](COc3cc(Cl)cc(CO)c3)CC[C@H]2Cl)s1` [51 b], for which the “IOP change from baseline” value in assay [1] is reported as “decreases from baseline”. Further, in the assay on normotensive dogs, the “intraocular pressure (IOP) change from baseline” value was “decreases from baseline”.

For `CC(=O)OCCc1cc(Cl)cc(OC[C@@H]2[C@@H](C/C=C\CCCC(=O)OCCN3CCOCC3)[C@H](Cl)C[C@H]2O)c1` [Compound 16b], the “IOP change from baseline” value in assay [1] was “decreases from baseline”. Also, the “intraocular pressure (IOP) change from baseline” value with normotensive dogs is reported as “decreases from baseline”.

As to `O=C(OCCN1CCOCC1)c1ccc(CCC[C@@H]2[C@@H](COc3cc(Cl)cc(Cl)c3)[C@H](O)C[C@H]2Cl)s1` [Compound 33b], the “IOP change from baseline” value in assay [1] is reported as “decreases from baseline”. Moreover, the “intraocular pressure (IOP) change from baseline” value with normotensive dogs is on record as “decreases from baseline”.

`O=C(CCC/C=C\C[C@@H]1[C@@H](COc2cc(Cl)cc(CCO)c2)[C@H](O)C[C@H]1Cl)OCCN1CCOCC1` [Compound 14b]: the “IOP change from baseline” value in assay [1] is listed as “decreases from baseline”. Moreover, the “intraocular pressure (IOP) change from baseline” value in the assay with normotensive dogs is recorded as “decreases from baseline”.

Turning to `O=C(OCCO)c1ccc(CCC[C@@H]2[C@@H](COc3cc(Cl)cc(Cl)c3)[C@H](O)C[C@H]2Cl)s1` [Compound 33a], the “IOP change from baseline” value in assay [1] is on record as “decreases from baseline”. Moreover, the “intraocular pressure (IOP) change from baseline” value in the assay with normotensive dogs is recorded as “decreases from baseline”.

Take `COCc1cc(Cl)cc(OC[C@@H]2[C@@H](C/C=C\CCCC(=O)OCCN3CCOCC3)[C@H](Cl)C[C@H]2O)c1` [Compound 22b]: in assay [1], the “IOP change from baseline” value is reported as “decreases from baseline”. In addition, the “intraocular pressure (IOP) change from baseline” value with normotensive dogs is given as “decreases from baseline”.

For the compound `N#C[C@@H]1C[C@@H](O)[C@H](COc2cc(Cl)cc(Cl)c2)[C@H]1CCCc1ccc(C(=O)OCCN2CCOCC2)s1` [Compound 58b], the “IOP change from baseline” value in assay [1] is recorded as “decreases from baseline”. For the same compound, the “intraocular pressure (IOP) change from baseline” value in the assay with normotensive dogs is “decreases from baseline”.

On to `O=C(OCCO)c1ccc(CCC[C@H]2C(=O)CC[C@@H]2COc2cc(Cl)cc(CO)c2)s1` [Compound 46a], for which the “IOP change from baseline” value in assay [1] is listed as “decreases from baseline”. The “intraocular pressure (IOP) change from baseline” value in the assay with normotensive dogs was “decreases from baseline”.

As for `O=C(CCC/C=C\C[C@@H]1[C@@H](COc2cc(Cl)cc(CCO)c2)[C@H](O)C[C@H]1Cl)OCCO` [Compound 14a], in assay [1], the “IOP change from baseline” value was “decreases from baseline”. In the assay with normotensive dogs, the “intraocular pressure (IOP) change from baseline” value was “decreases from baseline”.

`Cc1cc(C)cc(OC[C@@H]2[C@@H](CCCc3ccc(C(=O)OCCN4CCOCC4)s3)[C@H](Cl)C[C@H]2O)c1` [Compound 35b]: in assay [1], the “IOP change from baseline” value is on record as “decreases from baseline”. Also, the “intraocular pressure (IOP) change from baseline” value in the assay with normotensive dogs was “decreases from baseline”.

Turning to `CCNC(=O)CCC/C=C\C[C@@H]1[C@@H](/C=C/[C@@H](O)CCc2ccccc2)[C@H](O)C[C@@H]1O` [bimatoprost], in assay [2], the “lash appearance, treated eye versus non-treated eye” value was “longer, thicker, and fuller in the treated eye than in the non-treated eye”.

For `O=C(OCCO)c1ccc(CCC[C@@H]2[C@@H](COc3cc(Cl)cc(Cl)c3)[C@H](O)C[C@H]2F)s1` [Compound 70a], the “IOP change from baseline” value in assay [1] is “decreases from baseline”. For the same compound, the “intraocular pressure (IOP) change from baseline” value in the assay with normotensive dogs is recorded as “decreases from baseline”.

In the case of `O=C(OCCO)c1ccc(CCCC2=CC[C@@H](O)[C@@H]2COc2cc(Cl)cc(Cl)c2)s1` [Compound 69a], the “IOP change from baseline” value in assay [1] was “decreases from baseline”. The “intraocular pressure (IOP) change from baseline” value with normotensive dogs was “decreases from baseline”.

On to `COCc1cc(Cl)cc(OC[C@@H]2[C@@H](C/C=C\CCCC(=O)OCCO)[C@H](Cl)C[C@H]2O)c1` [Compound 22a], for which the “IOP change from baseline” value in assay [1] is on record as “decreases from baseline”. The “intraocular pressure (IOP) change from baseline” value with normotensive dogs is recorded as “decreases from baseline”.

With `O=C(OCCO)c1ccc(CCC[C@@H]2[C@@H](COc3cc(Cl)cc(CO)c3)CC[C@H]2Cl)s1` [Compound 51a], the “IOP change from baseline” value in assay [1] is given as “decreases from baseline”. In the assay on normotensive dogs, the “intraocular pressure (IOP) change from baseline” value is “decreases from baseline”.
